`CCNc1cc(-c2nc(N)n[nH]2)ccn1` showed a logP of 1.13. Compound `C=CCNc1cc(-c2nc[nH]n2)ccn1` has a logP of 1.26. `CCCCCCCCCCNc1cc(-c2nnc(N)[nH]2)ccn1` showed a logP of 4.07. With `CCCCNc1cc(-c2n[nH]c(N)n2)ccn1` the logP was 2.15. Work on `Nc1nc(-c2ccnc(NCCc3ccccc3)c2)n[nH]1` yielded a logP of 2.63. `CCCNc1cc(-c2nnc(N)[nH]2)ccn1` showed a logP of 1.61. With `Nc1cc(-c2nnc(N)[nH]2)ccn1` the logP was 0.11. For `Cc1ccc(CNc2cc(-c3n[nH]c(N)n3)ccn2)cc1`, the logP was 2.69. `Nc1n[nH]c(-c2ccnc(NCCO)c2)n1` showed a logP of 0.24. `CNc1cc(-c2n[nH]c(N)n2)ccn1` gave a logP of 0.69. Compound `Nc1nc(-c2ccnc(NCCCc3ccccc3)c2)n[nH]1` has a logP of 3.05. `COCCNc1cc(-c2nnc(N)[nH]2)ccn1` gave a logP of 0.94. For `CCCCCCNc1cc(-c2n[nH]c(N)n2)ccn1`, the logP was 3.3.

— the OPERA property sets (Mansouri et al. 2018)
